Data published in ChEMBL document CHEMBL1201862, “PubChem BioAssay data set” (2004).
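A five-concentration, 48-hour dose response in 96-well plates underlies each endpoint, interpolated linearly between surrounding concentrations. GI50: concentration for 50% inhibition of growth.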 The source made the active and inactive calls. Cut-off read from the data, not from the text of the source: active = GI50 up to about 1.1 µM and inactive = higher.

What was measured:
Assay in all cases: inhibition of tumour cell growth, NCI panel, 48 h
T47D = test system: T47D
UACC-257 = test system: UACC-257
M14 = test system: M14
SR = test system: SR
SF-295 = test system: SF-295
SK-MEL-5 = test system: SK-MEL-5
SF-539 = test system: SF-539
COLO 205 = test system: COLO 205
OVCAR-3 = test system: OVCAR-3
HCT-15 = test system: HCT-15
OVCAR-4 = test system: OVCAR-4
IGROV-1 = test system: IGROV-1
MOLT-4 = test system: MOLT-4
SF-268 = test system: SF-268
Hs-578T = test system: Hs-578T
CAKI-1 = test system: CAKI-1
HT-29 = test system: HT-29
SN12C = test system: SN12C
OVCAR-5 = test system: OVCAR-5
MCF7 = test system: MCF7
U-251 = test system: U-251
NCI-H226 = test system: NCI-H226
SK-MEL-2 = test system: SK-MEL-2
TK-10 = test system: TK-10
SNB-75 = test system: SNB-75
786-0 = test system: 786-0
CCRF-CEM = test system: CCRF-CEM
DU-145 = test system: DU-145
SNB-19 = test system: SNB-19
NCI-H522 = test system: NCI-H522
HL-60 = test system: HL-60
UO-31 = test system: UO-31
LOX IMVI = test system: LOX IMVI
A549 = test system: A549
UACC-62 = test system: UACC-62
PC-3 = test system: PC-3
Malme-3M = test system: Malme-3M
RXF 393 = test system: RXF 393
A498 = test system: A498
ACHN = test system: ACHN
SK-MEL-28 = test system: SK-MEL-28
HOP-92 = test system: HOP-92
KM12 = test system: KM12
OVCAR-8 = test system: OVCAR-8
NCI-H460 = test system: NCI-H460
K562 = test system: K562
MDA-MB-435 = test system: MDA-MB-435
HOP-62 = test system: HOP-62
RPMI-8226 = test system: RPMI-8226
EKVX = test system: EKVX
HCT-116 = test system: HCT-116
NCI/ADR-RES = test system: NCI/ADR-RES
SW-620 = test system: SW-620
HCC 2998 = test system: HCC 2998
NCI-H23 = test system: NCI-H23
MDA-MB-231 = test system: MDA-MB-231
BT-549 = test system: BT-549
SK-OV-3 = test system: SK-OV-3

## CCOc1ccc(NCC2CC/C(=C\C=C\c3ccccc3)C2=O)cc1 (stereo not given)
T47D
  GI50: 17.3 µM (inactive)
UACC-257
  GI50: 18.5 µM (inactive)
M14
  GI50: 13.7 µM (inactive)
SR
  GI50: 4 µM (inactive)
SF-295
  GI50: 26.5 µM (inactive)
SK-MEL-5
  GI50: 16 µM (inactive)
SF-539
  GI50: 18.9 µM (inactive)
COLO 205
  GI50: 13.7 µM (inactive)
OVCAR-3
  GI50: 18 µM (inactive)
HCT-15
  GI50: 5.41 µM
OVCAR-4
  GI50: 27.5 µM (inactive)
IGROV-1
  GI50: 12.5 µM (inactive)
MOLT-4
  GI50: 5.2 µM (inactive)
SF-268
  GI50: 16.4 µM (inactive)
Hs-578T
  GI50: 29 µM (inactive)
CAKI-1
  GI50: 12.7 µM (inactive)
HT-29
  GI50: 13.5 µM (inactive)
SN12C
  GI50: 16.6 µM (inactive)
OVCAR-5
  GI50: 21.5 µM (inactive)
MCF7
  GI50: 3.18 µM (inactive)
U-251
  GI50: 18.8 µM (inactive)
NCI-H226
  GI50: 44.7 µM (inactive)
SK-MEL-2
  GI50: > 100 µM (inactive)
TK-10
  GI50: 19.9 µM (inactive)
SNB-75
  GI50: 23.2 µM (inactive)
786-0
  GI50: 5.25 µM (inactive)
CCRF-CEM
  GI50: 6.75 µM (inactive)
DU-145
  GI50: 33.2 µM (inactive)
SNB-19
  GI50: 24 µM (inactive)
NCI-H522
  GI50: 8.61 µM (inactive)
HL-60
  GI50: 17.8 µM (inactive)
UO-31
  GI50: 26.6 µM (inactive)
LOX IMVI
  GI50: 11 µM (inactive)
A549
  GI50: 42.1 µM (inactive)
UACC-62
  GI50: 24.4 µM (inactive)
PC-3
  GI50: 23.6 µM (inactive)
Malme-3M
  GI50: 22 µM (inactive)
RXF 393
  GI50: 16.1 µM (inactive)
A498
  GI50: 28.6 µM (inactive)
ACHN
  GI50: 30.5 µM (inactive)
SK-MEL-28
  GI50: 16.4 µM (inactive)
HOP-92
  GI50: 16.1 µM (inactive)
KM12
  GI50: 6.07 µM (inactive)
OVCAR-8
  GI50: 16.9 µM (inactive)
NCI-H460
  GI50: 32 µM (inactive)
K562
  GI50: 3.61 µM (inactive)
MDA-MB-435
  GI50: 12.2 µM (inactive)
HOP-62
  GI50: 29.9 µM (inactive)
RPMI-8226
  GI50: 10.9 µM (inactive)
EKVX
  GI50: 37.3 µM (inactive)
HCT-116
  GI50: 6.98 µM (inactive)
NCI/ADR-RES
  GI50: 25.7 µM (inactive)
SW-620
  GI50: 5.83 µM (inactive)
HCC 2998
  GI50: 31.9 µM (inactive)
NCI-H23
  GI50: 18 µM (inactive)
MDA-MB-231
  GI50: 9.14 µM (inactive)
BT-549
  GI50: 15.2 µM (inactive)
SK-OV-3
  GI50: > 100 µM (inactive)

## CCN(CC)CCCNc1ccc([N+](=O)[O-])c2nc3ccc(OC)cc3c(N)c12
T47D
  GI50: > 10 µM (inactive)
UACC-257
  GI50: > 10 µM (inactive)
M14
  GI50: > 4.41 µM (inactive)
SR
  GI50: 1.51 µM (inactive)
SF-295
  GI50: 1.82 µM (inactive)
SK-MEL-5
  GI50: > 5.16 µM (inactive)
SF-539
  GI50: 1.85 µM (inactive)
COLO 205
  GI50: 1.34 µM (inactive)
OVCAR-3
  GI50: > 4.46 µM (inactive)
HCT-15
  GI50: 1.72 µM
OVCAR-4
  GI50: 1.92 µM (inactive)
IGROV-1
  GI50: 2.58 µM (inactive)
MOLT-4
  GI50: 1.33 µM (inactive)
SF-268
  GI50: 1.71 µM (inactive)
Hs-578T
  GI50: 1.2 µM (inactive)
CAKI-1
  GI50: > 10 µM (inactive)
HT-29
  GI50: 1.77 µM (inactive)
SN12C
  GI50: 2.07 µM (inactive)
OVCAR-5
  GI50: > 10 µM (inactive)
MCF7
  GI50: > 4.37 µM (inactive)
U-251
  GI50: > 10 µM (inactive)
NCI-H226
  GI50: > 10 µM (inactive)
SK-MEL-2
  GI50: > 9.33 µM (inactive)
TK-10
  GI50: > 10 µM (inactive)
SNB-75
  GI50: 1.93 µM (inactive)
786-0
  GI50: 1.44 µM (inactive)
CCRF-CEM
  GI50: 1.34 µM (inactive)
DU-145
  GI50: 3.21 µM (inactive)
SNB-19
  GI50: > 4.34 µM (inactive)
NCI-H522
  GI50: 2.82 µM (inactive)
HL-60
  GI50: 1.94 µM (inactive)
UO-31
  GI50: > 5.58 µM (inactive)
LOX IMVI
  GI50: 1.7 µM (inactive)
A549
  GI50: 1.86 µM (inactive)
UACC-62
  GI50: > 10 µM (inactive)
PC-3
  GI50: 1.75 µM (inactive)
Malme-3M
  GI50: > 10 µM (inactive)
RXF 393
  GI50: > 10 µM (inactive)
A498
  GI50: > 10 µM (inactive)
ACHN
  GI50: > 6.67 µM (inactive)
SK-MEL-28
  GI50: > 10 µM (inactive)
HOP-92
  GI50: > 3.65 µM (inactive)
KM12
  GI50: 1.57 µM (inactive)
OVCAR-8
  GI50: 1.95 µM (inactive)
NCI-H460
  GI50: 1.82 µM (inactive)
K562
  GI50: 2.1 µM (inactive)
MDA-MB-435
  GI50: 1.62 µM (inactive)
HOP-62
  GI50: > 10 µM (inactive)
RPMI-8226
  GI50: 2 µM (inactive)
EKVX
  GI50: > 10 µM (inactive)
HCT-116
  GI50: 1.05 µM (active)
NCI/ADR-RES
  GI50: > 4.17 µM (inactive)
SW-620
  GI50: 1.49 µM (inactive)
NCI-H23
  GI50: 2.29 µM (inactive)
MDA-MB-231
  GI50: 1.7 µM (inactive)
BT-549
  GI50: 1.53 µM (inactive)
SK-OV-3
  GI50: > 3.92 µM (inactive)
